We go through 23 molecules from patent publication US7196084B2, “Cdc25 phosphatase inhibitors” (Societe de Conseils de Recherches et d'Applications …, priority 2000, dated 2007).

Where a name gives a salt, the structure may show the parent alone.

The subject of data set [1] is Mia-PaCa2 (human pancreatic cancer cells). Put plainly: Anti-proliferative activity, WST1 colorimetric test, Mia-PaCa2. It counts as cell-based. The settings on record: MIA PaCa-2, treated for 96 hours, read-out: IC50 on the cell proliferation of Mia-Paca2 lines. The protocol: (§1) c) Characterization of the Anti-proliferative Activity:
(§2) By way of example, the effect of a treatment on two lines of human Mia-Paca2 and DU145 cells with compounds of Examples 1–5 described previously will be studied. The cell lines DU145 (human prostate cancer cells) and Mia-PaCa2 (human pancreatic cancer cells) were acquired from the American Tissue Culture Collection (Rockville, Md., USA). The cells placed in 80 μL of Dulbecco's modified Eagle medium (Gibco-Brl, Cergy-Pontoise, France) completed with 10% foetal calf serum inactivated by heating (Gibco-Brl, Cergy-Pontoise, France), 50000 units/l of penicillin and 50 mg/l streptomycin (Gibco-Brl, Cergy-Pontoise, France), and 2 mM of glutamine (Gibco-Brl, Cergy-Pontoise, France) were seeded on a 96-well plate on day 0. The cells were treated on day 1 for 96 hours with increasing concentrations of each of the compounds to be tested up to 50 μg/ml. At the end of this period, quantification of cell proliferation is evaluated by a colorimetric test based on the cleavage of the tetrazolium salt WST1 by mitochondrial dehydrogenases in viable cells leading to the formation of formazan (Boehringer Mannheim, Meylan, France). These tests are carried out in duplicate with 8 determinations per concentration tested. For each compound to be tested, the values included in the linear part of the sigmoid were retained for linear regression analysis and used to estimate the inhibitory concentration IC50. The products are solubilized in dimethylsulphoxide (DMSO) at 10^−2 M and finally used in culture with 0.5% DMSO.

Data set [2] relates to phosphorylation of cdc2 in the Mia PaCa-2 line (endogenous cdc25C phosphatase of human cells). The data set is described as follows: Measurement of the state of cdc2 phosphorylation (western blot). To be noted: Mia-Paca2 cells treated with increasing concentrations, sampling 24 hours later, FIG. 1; menadione as reference inhibitor. It is filed as cell-based. The protocol:
b) Measurement of the State of cdc2 Phosphorylation:
This relates to showing that the enzymatic activity of cdc25-C phosphatase is inhibited in vivo […] in the presence of selected inhibitors.
The cells of the Mia PaCa2 line are seeded at a rate of 450 000 cells in 10 cm Petri dishes in Dulbecco's modified Eagle medium completed with 10% foetal calf serum. 48 hours later, the cells are treated for 1 hour with the compound to be tested or menadione at 100 μM (reference inhibitor). The medium is renewed after washing with PBS. 24 hours after the cells are scraped and lysed in the lysis buffer (Hepes 50 mM pH 7.5; NaCl 10 mM; Triton X100 1%; glycerol 10%; MgCl2 5 mM; EDTA 1 mM; sodium orthovanadate 1 mM; protease inhibitor cocktail 1836170 Roche Diagnostics). After centrifugation at 13 000 rpm for 10 minutes at 4° C., the concentration of proteins is determined in the supernatant (Bio-Rad DC Protein assay kit) and adjusted to 10 μg. The load buffer concentrated 5 times (Tris HCl 125 mM pH 7.4; SDS 10%; glycerol 50%; bromophenol blue 0.025%; β-mercaptoethanol 7%) is added to the samples. The samples are heated for 10 minutes at 100° C. The samples are deposited in a volume of 40 μl on Tris/Glycine 12% gels (BioRad). Migration occurs over 1 hour at 180 V. The proteins are transferred onto a nitrocellulose membrane (Hybond C, Amersham) under semi-dry conditions. […]
Background: A western blot detects proteins with antibodies after separation by electrophoresis.

For data set [3], the system named is DU145 (human prostate cancer cells). The data set is described as follows: Anti-proliferative activity, WST1 colorimetric test, DU145. It is filed as cell-based. To be noted: DU-145, treated for 96 hours, read-out: IC50 on the cell proliferation of DU-145 lines. The method, then: as §1, §2
For orientation: Formazan colour is commonly taken as a measure of viable cells.

`CC1CCN(S(=O)(=O)c2cccc(CNC(=O)c3cc4cc(O)ccc4cc3O)c2)CC1` [Example 29, 3,7-dihydroxy-N-{3-[(4-methyl-1-piperidinyl)sulphonyl]benzyl}-2-naphthamide]: in data set [1], the IC50 was not above 100 µM.
In general, melting point refers to the temperature of the solid-liquid transition. As for `CCCCS(=O)(=O)N1CCN(C(=O)c2cc3cc(O)ccc3cc2O)CC1` [Example 33, 3-{[4-(butylsulphonyl)piperazin-1-yl]carbonyl}naphthalene-2,6-diol], the melting point was in the range of 105 to 110 °C.
As for `COc1cc(N(C)C)cc(CN(C)CCc2ccc([N+](=O)[O-])cc2)c1O` [Example 1, 4-(dimethylamino)-2-methoxy-6-({methyl[2-(4-nitrophenyl)ethyl]-amino}methyl)phenol], the melting point lay in the range of 91 to 93 °C. Moreover, in data set [1], the IC50 was not above 100 µM. Further, in data set [2], the “increase of the phosphorylated form of cdc2” value is given as “growing increase of the phosphorylated form of cdc2”.
As to `NS(=O)(=O)c1ccc(CCNC(=O)c2cc3cc(O)ccc3cc2O)cc1` [Example 14, N-{2-[4-(aminosulphonyl)phenyl]ethyl}-3,7-dihydroxy-2-naphthamide], the IC50 in data set [3] and in data set [1] was not above 100 µM throughout.
Take `CN(C)c1ccc(NC(=O)CCNCc2cccc(N=C(N)c3cccs3)c2)cc1` [Example 4, 3-[(3-{[amino(2-thienyl)methylidene]amino}-benzyl)amino]-N-[4-(dimethylamino)phenyl]propanamide hydrochloride]: the IC50 in data set [1] was not above 100 µM.
With `O=C(NCCc1ccc(NS(=O)(=O)c2ccc(F)cc2)cc1)c1cc2cc(O)ccc2cc1O` [Example 28, N-[2-(4-{[(4-fluorophenyl)sulphonyl]amino}phenyl)ethyl]-3,7-dihydroxy-2-naphthamide], the IC50 in data set [1] was not above 100 µM.
On to `O=C(NCCc1ccc([N+](=O)[O-])cc1)c1cc2cc(O)ccc2cc1O` [Example 11, 3,7-dihydroxy-N-[2-(4-nitrophenyl)ethyl]-2-naphthamide], for which the melting point was more than 250 °C. Also, the IC50 in data set [1] is not above 100 µM.
`COc1cc(CN(C)CCc2ccc([N+](=O)[O-])cc2)cc(N(C)C)c1O` [Example 8, 2-(dimethylamino)-6-methoxy-4-({methyl[2-(4-nitrophenyl)ethyl]amino}methyl)phenol]: the IC50 in data set [1] was not above 100 µM.
In turn, `CS(=O)(=O)Nc1ccc(CCNC(=O)c2cc3cc(O)ccc3cc2O)cc1` [Example 16, 3,7-dihydroxy-N-(2-{4-[(methylsulphonyl)amino]phenyl}ethyl)-2-naphthamide] registered a melting point of 176 to 178 °C. For the same molecule, the IC50 in data set [1] is not above 100 µM.
In turn, `Cc1ccc(S(=O)(=O)Nc2ccc(CCNC(=O)c3cc4cc(O)ccc4cc3O)cc2)cc1` [Example 18, 3,7-dihydroxy-N-[2-(4-{[(4-methylphenyl)sulphonyl]amino}phenyl)ethyl]-2-naphthamide] showed a melting point of 182 to 184 °C. For the same molecule, the IC50 in data set [1] was not above 100 µM.
Take `CN1CCN(c2ccc(NC(=O)CCCc3ccc(N)cc3)cc2)CC1.Cl` [Example 5, 4-(4-aminophenyl)-N-[4-(4-methyl-1-piperazinyl)phenyl]butanamide hydrochloride]: the melting point lay within 156 to 158 °C.
In turn, `Cc1ccc(S(=O)(=O)N2CCN(C(=O)c3cc4cc(O)ccc4cc3O)CC2)cc1` [Example 31, 3-({4-[(4-methylphenyl)sulphonyl]piperazin-1-yl}carbonyl) naphthalene-2,6-diol] came in with a melting point of 135 to 137 °C. In addition, the IC50 in data set [1] was not above 100 µM.
For the molecule `CC1=CC(=O)c2ccccc2C1=O` [menadione, reference compound], the “increase of the phosphorylated form of cdc2” value in data set [2] is “increase”.
Take `CN(C)c1ccc(O)c(CNCCc2ccc([N+](=O)[O-])cc2)c1` [Example 7, 4-(dimethylamino)-2-({[2-(4-nitrophenyl)ethyl]amino}methyl)phenol]: the IC50 in data set [1] is not above 100 µM.
For the molecule `CCCCS(=O)(=O)Nc1ccc(CCNC(=O)c2cc3cc(O)ccc3cc2O)cc1` [Example 17, N-(2-{4-[(butylsulphonyl)amino]phenyl}ethyl)-3,7-dihydroxy-2-naphthamide], the melting point lay within 193 to 195 °C. In addition, the IC50 in data set [1] is not above 100 µM.
In turn, `CN(C)c1ccccc1NC(=O)CCCCc1ccc(/N=C(/N)c2cccs2)cc1.Cl` [Example 30, 5-(4-{[(1E)-amino(2-thienyl)methylidene]amino}phenyl)-N-[2-(dimethylamino)phenyl]pentanamide hydrochloride] returned a melting point of 145 to 148 °C. For the same molecule, the IC50 in data set [1] was not above 100 µM.
For `O=C(NCCc1ccc(NS(=O)(=O)c2cccc(C(F)(F)F)c2)cc1)c1cc2cc(O)ccc2cc1O` [Example 22, 3,7-dihydroxy-N-{2-[4-({[3-(trifluoromethyl)phenyl]sulphonyl}amino)phenyl]ethyl}-2-naphthamide], the IC50 in data set [3] and in data set [1] was not above 100 µM in each case.
As for `CN(CCc1ccc([N+](=O)[O-])cc1)Cc1cc(N(C)C)ccc1O` [Example 2, 4-(dimethylamino)-2-({methyl[2-(4-nitrophenyl)ethyl]amino}methyl)phenol], in data set [1], the IC50 is not above 100 µM.
For `COc1cc(N(C)C)cc(CN(C)CCc2ccc([N+](=O)[O-])cc2)c1OC(C)=O` [Example 10, 4-(dimethylamino)-2-methoxy-6-({methyl[2-(4-nitrophenyl)ethyl]amino}methyl)phenyl acetate], in data set [1], the IC50 was not above 100 µM.
As to `COc1cc(N(C)C)cc(CNCCc2ccc([N+](=O)[O-])cc2)c1O` [Example 6, 4-(dimethylamino)-2-methoxy-6-({[2-(4-nitrophenyl)ethyl]amino}methyl)phenol], the IC50 in data set [1] is not above 100 µM.
Consider `CN(CCc1ccc([N+](=O)[O-])cc1)Cc1cc(O)ccc1O` [Example 9, 2-({methyl [2-(4-nitrophenyl)ethyl]amino}methyl)-1,4-benzenediol], for which the IC50 in data set [1] was not above 100 µM.
`CS(=O)(=O)N1CCN(C(=O)c2cc3cc(O)ccc3cc2O)CC1` [Example 32, 3-{[4-(methylsulphonyl)piperazin-1-yl]carbonyl}naphthalene-2,6-diol] had a melting point of 124 to 126 °C.
`CCOP(=O)(OCC)Oc1ccc(CCNC(=O)c2cc3cc(O)ccc3cc2O)cc1` [Example 13, diethyl 4-{2-[(3,7-dihydroxy-2-naphthoyl)amino]ethyl}phenylphosphate] yielded a melting point of 192 to 194 °C. Moreover, the IC50 in data set [3] is not above 100 µM. Further, in data set [1], the IC50 was not above 100 µM.
